# From patent US20230047788A1, “COMPOSITIONS COMPRISING 5-CHOLESTEN-3, 25-DIOL, 3-SULFATE (25HC3S) OR PHARMACEUTICALLY ACCEPTABLE SALT THEREOF AND AT LEAST ONE CYCLIC OLIGOSACCHARIDE” (Virginia Commonwealth University, priority 2016, published 2023)
# Experiment: Effect of phosphate and borate buffers on chemical stability (% remaining, impurity profile), osmolality, pH and appearance of 25HC3S 30 mg/mL in 250 mg/mL HPBCD at 80°C and 60°C
# Assay type: physicochemical
# Protocol: A total of six 25HC3S formulations at 30 mg/mL in 250 mg/mL of 2-hydroxypropyl beta cyclodextrin (HPBCD) containing 10, 20, 50 and 100 mM phosphate buffers at pH 7.5 to 8.1 and 10 and 50 mM borate buffers at pH 9.4 were prepared for the stability study. The chemical stability (measured as % remaining of 25HC3S) and physical stability (osmolality, pH and appearance) of the formulations were monitored under accelerated conditions for up to 7 days at 80° C. and up to 29 days at 60° C.
# Two stock solutions of phosphate buffer at 100 and 200 mM at pH 7.4 and 7.3, respectively and one borate buffer at 100 mM at pH 9.3 were prepared (Tables 22A and 22B) and used for 250 mg/mL HPBCD vehicles preparation (Table 23).
# Approximately 1200 mg each of 25HC3S was weighed into 40 mL volumetric flasks and diluted to volume with the six HPBCD vehicles containing 10-100 mM phosphate buffers or 10 and 50 mM borate buffers, respectively (Table 24). The final concentration of 25HC3S was 30 mg/mL (wt/volume, without adjusting for API purity). Aliquots of 2 mL of each formulation were filled into 2 mL glass vials, stoppered and sealed for stability sample set-up at 60° C. and 80° C. to study the effect of phosphate buffer (pH 7.5-8.1) and borate buffer (pH 9.4) at various buffer concentrations on the stability of the HPBCD formulations (Table 26).
# A 0.5 mL of sample solution was transferred to a 25 mL volumetric flask and QS'ed with methanol/water=95/5 for 25HC3S concentration determination by HPLC. The % remaining of 25HC3S was calculated as follows: […]
# [1] = 250 mg/mL HPBCD, 50 mM borate, 80°C, day 0
# [2] = 250 mg/mL HPBCD, 50 mM borate, 80°C, day 1
# [3] = 250 mg/mL HPBCD, 50 mM borate, 80°C, day 2
# [4] = 250 mg/mL HPBCD, 50 mM borate, 80°C, day 3
# [5] = 250 mg/mL HPBCD, 50 mM borate, 80°C, day 7
# [6] = 250 mg/mL HPBCD, 50 mM borate, day 0
# [7] = 250 mg/mL HPBCD, 50 mM phosphate, 80°C, day 0
# [8] = 250 mg/mL HPBCD, 50 mM phosphate, 80°C, day 1
# [9] = 250 mg/mL HPBCD, 50 mM phosphate, 80°C, day 2
# [10] = 250 mg/mL HPBCD, 50 mM phosphate, 80°C, day 3
# [11] = 250 mg/mL HPBCD, 50 mM phosphate, 80°C, day 7
# [12] = 250 mg/mL HPBCD, 50 mM phosphate, day 0
# [13] = 250 mg/mL HPBCD, 100 mM phosphate, 80°C, day 0
# [14] = 250 mg/mL HPBCD, 100 mM phosphate, 80°C, day 1
# [15] = 250 mg/mL HPBCD, 100 mM phosphate, 80°C, day 2
# [16] = 250 mg/mL HPBCD, 100 mM phosphate, 80°C, day 3
# [17] = 250 mg/mL HPBCD, 100 mM phosphate, 80°C, day 7
# [18] = 250 mg/mL HPBCD, 100 mM phosphate, day 0
structure (smiles),measurement,setting,value
"C[C@H](CCCC(C)(C)O)[C@H]1CC[C@H]2[C@@H]3CC=C4C[C@@H](OS(=O)(=O)[O-])CC[C@]4(C)[C@H]3CC[C@]12C.[Na+] [25HC3S, 5-cholesten-3, 25-diol, 3-sulfate]",pH,"250 mg/mL HPBCD, 20 mM phosphate, day 0",7.81
same,pH,"250 mg/mL HPBCD, 50 mM borate, 60°C, 29 days",9.19
same,25HC3S concentration,[1],28.50 mg/mL
same,% Remaining of 25HC3S,[1],100.0%
same,25HC3S concentration,[2],26.78 mg/mL
same,% Remaining of 25HC3S,[2],94.0%
same,Osmolality,[2],527 mmol/kg
same,pH,[2],9.34
same,25HC3S concentration,[3],25.45 mg/mL
same,% Remaining of 25HC3S,[3],89.3%
same,Osmolality,[3],534 mmol/kg
same,pH,[3],9.28
same,25HC3S concentration,[4],24.05 mg/mL
same,% Remaining of 25HC3S,[4],84.4%
same,Osmolality,[4],535 mmol/kg
same,pH,[4],9.12
same,25HC3S concentration,[5],20.20 mg/mL
same,% Remaining of 25HC3S,[5],70.9%
same,Appearance,[5],brown clear solutions
same,Osmolality,[5],569 mmol/kg
same,pH,[5],8.92
same,Osmolality,[6],524 mmol/kg
same,pH,[6],9.40
same,pH,"250 mg/mL HPBCD, 50 mM phosphate, 60°C, 29 days",7.28
same,25HC3S concentration,[7],28.50 mg/mL
same,% Remaining of 25HC3S,[7],100.0%
same,25HC3S concentration,[8],27.13 mg/mL
same,% Remaining of 25HC3S,[8],95.2%
same,Osmolality,[8],427 mmol/kg
same,pH,[8],7.42
same,25HC3S concentration,[9],25.83 mg/mL
same,% Remaining of 25HC3S,[9],90.6%
same,Osmolality,[9],432 mmol/kg
same,pH,[9],7.29
same,25HC3S concentration,[10],24.65 mg/mL
same,% Remaining of 25HC3S,[10],86.5%
same,Osmolality,[10],423 mmol/kg
same,pH,[10],7.08
same,25HC3S concentration,[11],20.75 mg/mL
same,% Remaining of 25HC3S,[11],72.8%
same,Osmolality,[11],453 mmol/kg
same,pH,[11],6.73
same,Osmolality,[12],415 mmol/kg
same,pH,[12],7.63
same,pH,"250 mg/mL HPBCD, 100 mM phosphate, 60°C, 29 days",7.28
same,25HC3S concentration,[13],28.58 mg/mL
same,% Remaining of 25HC3S,[13],100.0%
same,25HC3S concentration,[14],27.10 mg/mL
same,% Remaining of 25HC3S,[14],94.8%
same,Osmolality,[14],589 mmol/kg
same,pH,[14],7.42
same,25HC3S concentration,[15],25.83 mg/mL
same,% Remaining of 25HC3S,[15],90.4%
same,Osmolality,[15],585 mmol/kg
same,pH,[15],7.33
same,25HC3S concentration,[16],24.65 mg/mL
same,% Remaining of 25HC3S,[16],86.2%
same,Osmolality,[16],589 mmol/kg
same,pH,[16],7.15
same,25HC3S concentration,[17],21.05 mg/mL
same,% Remaining of 25HC3S,[17],73.7%
same,Appearance,[17],brown clear solution
same,Osmolality,[17],616 mmol/kg
same,pH,[17],6.93
same,Osmolality,[18],573 mmol/kg
same,pH,[18],7.53
same,Appearance,"250 mg/mL HPBCD, 10, 20 and 50 mM phosphate, 80°C, up to 7 days",colorless clear solutions
same,appearance when removed from 80°C oven and cooled to room temperature,"10 or 50 mM borate formulations, 80°C up to 7 days",a white precipitate was observed
same,25HC3S,"60° C., day 0, Borate 10 mM",28.58 mg/mL
same,% Peak Area 25-Hydroxy Cholesterol at RRT = 3.67,"60° C., day 0, Borate 10 mM",0.0 % Peak Area
same,% Peak Area 25HC3S,"60° C., day 0, Borate 10 mM",99.7 % Peak Area
same,% Peak Area Major Thermal Degradant at RRT = 2.64,"60° C., day 0, Borate 10 mM",0.3 % Peak Area
same,% Remaining of 25HC3S,"60° C., day 0, Borate 10 mM",100.0%
same,Osmolality,"60° C., day 0, Borate 10 mM",316 mmol/kg
same,pH,"60° C., day 0, Borate 10 mM",9.36
same,25HC3S,"60° C., day 0, Borate 50 mM",28.50 mg/mL
same,% Peak Area 25-Hydroxy Cholesterol at RRT = 3.67,"60° C., day 0, Borate 50 mM",0.0 % Peak Area
same,% Peak Area 25HC3S,"60° C., day 0, Borate 50 mM",99.9 % Peak Area
same,% Peak Area Major Thermal Degradant at RRT = 2.64,"60° C., day 0, Borate 50 mM",0.2 % Peak Area
same,% Remaining of 25HC3S,"60° C., day 0, Borate 50 mM",100.0%
same,Osmolality,"60° C., day 0, Borate 50 mM",524 mmol/kg
